Assay results published in ChEMBL document CHEMBL1201862, “PubChem BioAssay data set” (2004).
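Tested at 5 concentrations; 48 h exposure; 96-well plates; endpoints linearly interpolated, else capped at highest concentration. At the GI50, growth is halved.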 Active and inactive are the calls of the source. Rule as the data show it: active = GI50 up to about 1.1 µM and inactive = higher.

Experiments:
Experiment in all cases: inhibition of tumour cell growth, NCI panel, 48 h
[1] = tested on: CAKI-1
[2] = tested on: LOX IMVI
[3] = tested on: HCT-116
[4] = tested on: Malme-3M
[5] = tested on: OVCAR-4
[6] = tested on: NCI-H226
[7] = tested on: SW-620
[8] = tested on: IGROV-1
[9] = tested on: PC-3
[10] = tested on: EKVX
[11] = tested on: OVCAR-5
[12] = tested on: BT-549
[13] = tested on: SK-OV-3
[14] = tested on: UACC-62
[15] = tested on: HL-60
[16] = tested on: NCI-H23
[17] = tested on: 786-0
[18] = tested on: OVCAR-8
[19] = tested on: COLO 205

Measured: GI50

COC(=O)C(/C(=N/N)C(=O)Nc1cc(Cl)c(Cl)cc1Cl)c1nc2ccc(Cl)cc2nc1O (configuration not stated)
inactive: [1] > 100 µM | [2] > 100 µM | [3] > 100 µM | [4] > 100 µM | [5] 2.79 µM | [6] > 100 µM | [7] > 100 µM | [8] 45 µM | [9] > 100 µM | [10] 29.1 µM | [11] > 100 µM | [12] > 100 µM | [13] > 100 µM | [14] > 100 µM | [15] > 100 µM | [16] > 100 µM | [17] > 100 µM | [18] > 100 µM

Cc1nc2cccc([N+](=O)[O-])c2n1CCCN(C)C
inactive: [1] > 100 µM | [2] > 100 µM | [3] > 100 µM | [4] > 100 µM | [5] > 100 µM | [6] > 100 µM | [7] > 100 µM | [8] > 100 µM | [9] > 100 µM | [10] > 100 µM | [11] > 100 µM | [12] > 100 µM | [13] > 100 µM | [14] > 100 µM | [15] > 100 µM | [19] > 100 µM | [16] > 100 µM | [17] > 100 µM | [18] > 100 µM

COc1ccc(/C=N/n2c(-c3ccccc3)n[nH]c2=O)c(OC)c1
inactive: [1] 41.2 µM | [2] 47.4 µM | [3] 54.5 µM | [4] > 100 µM | [5] 27 µM | [6] 51.1 µM | [7] > 100 µM | [8] 36.9 µM | [9] 50.1 µM | [10] 38.5 µM | [11] > 92.9 µM | [12] 4.41 µM | [13] 31.8 µM | [14] 43.9 µM | [15] > 100 µM | [19] > 100 µM | [16] 39.4 µM | [17] 30.5 µM | [18] 29.9 µM

CN(CCCN1CCCC1)CCCN(C)C(=O)Cc1ccc(Cl)c(Cl)c1
inactive: [1] 20.6 µM | [2] 12.7 µM | [3] 13.6 µM | [4] 18.3 µM | [5] 29.6 µM | [6] 26.2 µM | [7] 18.4 µM | [8] 23.9 µM | [9] 22.1 µM | [10] 24.1 µM | [11] 29.4 µM | [12] 18.6 µM | [13] 27.7 µM | [14] 2.36 µM | [15] 15.7 µM | [19] 17.6 µM | [16] 21.2 µM | [17] 13.4 µM | [18] 30 µM

COc1ccc2c(c1)C(=O)CC(N)C2 (configuration not stated)
inactive: [1] > 100 µM | [2] > 100 µM | [3] > 100 µM | [4] > 100 µM | [5] > 100 µM | [6] 67.8 µM | [7] > 100 µM | [8] > 100 µM | [9] 42 µM | [10] 57 µM | [11] > 100 µM | [12] > 100 µM | [13] > 100 µM | [14] 68.5 µM | [15] 62.7 µM | [19] > 100 µM | [16] > 100 µM | [17] > 100 µM | [18] > 100 µM

CC(NNC(=O)CC(=O)N(C(=O)c1ccccc1)c1ccc(Cl)cc1)c1cc2ccccc2oc1=O (configuration not stated)
inactive: [1] > 10 µM | [2] > 10 µM | [3] > 10 µM | [4] > 10 µM | [5] > 10 µM | [6] > 10 µM | [7] > 10 µM | [8] > 10 µM | [9] > 10 µM | [10] > 10 µM | [11] > 10 µM | [12] > 10 µM | [13] > 10 µM | [14] > 10 µM | [15] > 10 µM | [19] > 10 µM | [16] > 10 µM | [17] > 10 µM | [18] > 10 µM

CC(C)(C)OC(=O)N1C(OP(=O)(Oc2ccccc2)Oc2ccccc2)=CSc2ccccc21
inactive: [1] 18.8 µM | [2] 47.2 µM | [3] 30.2 µM | [4] 27.7 µM | [5] 34 µM | [6] 80.2 µM | [7] 41.2 µM | [8] 38.1 µM | [9] 47.8 µM | [10] 31.8 µM | [11] 68.9 µM | [12] 48.4 µM | [13] 57.8 µM | [14] 46.9 µM | [15] 20.1 µM | [19] 20.4 µM | [16] 37.4 µM | [17] 45.5 µM | [18] 59 µM

O=C(c1ccco1)N1CCN(C(=O)c2ccco2)C1=S
inactive: [1] 4.72 µM | [2] 3.59 µM | [3] 9.86 µM | [4] 6.07 µM | [5] 17.1 µM | [6] 28.7 µM | [7] 5.66 µM | [8] 9.64 µM | [9] 4.78 µM | [10] 16.1 µM | [11] 20.3 µM | [12] 8.47 µM | [13] 17.3 µM | [14] 6.34 µM | [15] 3.42 µM | [19] 6.81 µM | [16] 18.4 µM | [17] 3.28 µM | [18] 11 µM

COC(=O)[C@@H]1C[C@@]2(C3C=CN(C(=O)C(F)(F)F)C=C3)c3ccccc3N(C(=O)C(F)(F)F)[C@H]2N1C(=O)OC
inactive: [1] 65.3 µM | [2] 44.5 µM | [3] > 100 µM | [4] > 100 µM | [5] 93.3 µM | [6] > 100 µM | [7] 47.3 µM | [8] > 100 µM | [9] 70.8 µM | [10] > 100 µM | [11] > 100 µM | [12] 33.3 µM | [13] > 100 µM | [14] 32.1 µM | [15] 30.9 µM | [19] > 100 µM | [16] > 100 µM | [17] 54 µM | [18] > 100 µM

C[N+]1([O-])C2CCC1CC(OC(=O)C(CO)c1ccccc1)C2 (configuration not stated)
inactive: [1] > 100 µM | [2] > 100 µM | [3] > 100 µM | [4] > 100 µM | [5] > 100 µM | [6] > 100 µM | [7] > 100 µM | [8] > 100 µM | [9] > 100 µM | [10] > 100 µM | [11] > 100 µM | [12] > 66.5 µM | [13] > 100 µM | [14] > 100 µM | [15] > 100 µM | [19] > 100 µM | [16] > 33.8 µM | [17] > 100 µM | [18] > 100 µM

Cc1ncc([N+](=O)[O-])n1CCN(C)CCCCn1ccnc1[N+](=O)[O-]
inactive: [1] > 100 µM | [2] > 100 µM | [3] > 100 µM | [4] > 100 µM | [5] > 100 µM | [6] > 100 µM | [7] > 100 µM | [9] > 100 µM | [10] > 100 µM | [11] > 100 µM | [12] > 100 µM | [13] > 100 µM | [14] > 100 µM | [15] > 100 µM | [19] > 100 µM | [16] > 100 µM | [17] > 100 µM | [18] > 100 µM
